According to US12466803B2 (priority 2021, dated 2025):

What follows are compounds tested on obese ZSF1 rats (assay: not given). Conditions: diet containing 1.36 g BT2/kg, after 4 additional weeks (8 weeks) of treatment; mean±SD.

SMILES	kidney weights [g]
O=C(O)c1sc2cc(Cl)ccc2c1Cl [BT2]	2.09 ± 0.1

Same assay, conditions: diet containing 1.36 g BT2/kg, after 4 weeks of treatment; BCA assay; mean±SD

SMILES	urine protein normalized to creatinine [mg protein/mg creatinine]
O=C(O)c1sc2cc(Cl)ccc2c1Cl [BT2]	55.4±7.2

Same assay, conditions: diet containing 1.36 g BT2/kg, after 4 weeks of treatment; mean±SD

SMILES	urine produced in 5 hour urine collection [mL]
O=C(O)c1sc2cc(Cl)ccc2c1Cl [BT2]	4.4 ± 2.7

Same assay, conditions: histology graded on a scale of 0-4, after 8 weeks of BT2 diet; mean±SD

SMILES	diabetic nephropathy score
O=C(O)c1sc2cc(Cl)ccc2c1Cl [BT2]	2.9±0.8

Each compound was assayed on phospho (S293) BCKDHA in human skeletal myocytes (assay: Phospho BCKDHA Alpha Surefire Cell Assay). Conditions: 60 minutes with compound, geometric mean.
Assay type: cell-based

IC50 [µM]	SMILES
> 56	C[C@@H]1CCc2cc(-c3c(C(=O)O)sc4cc(F)ccc34)ccc2O1 (single isomer, unassigned) [Example 44, 6-fluoro-3-(2-methyl-3,4-dihydro-2H-1-benzopyran-6-yl)-1-benzothiophene-2-carboxylic acid, ENANT-2]
3.9	C[C@@H]1CCc2c(ccc(-c3c(C(=O)O)sc4cc(F)ccc34)c2F)O1 (single isomer, unassigned) [Example 78, 6-fluoro-3-(5-fluoro-2-methyl-3,4-dihydro-2H-1-benzopyran-6-yl)-1-benzothiophene-2-carboxylic acid, ENANT-2]

SMILES	IC50 [µM]
COc1c(F)cc(Cl)c(-c2c(C(=O)O)sc3cc(F)ccc23)c1F (atropisomer, axis not shown) [Example 16, 3-(6-Chloro-2,4-difluoro-3-methoxyphenyl)-6-fluoro-1-benzothiophene-2-carboxylic acid, ATROP-2]	0.015

Same assay, conditions: Homo sapiens, 1 h, 60 minutes with compound, geometric mean

SMILES	IC50 [µM]
O=C(O)c1sc2cc(Cl)ccc2c1-c1ccccc1 [Example 74, 6-chloro-3-phenyl-1-benzothiophene-2-carboxylic acid]	> 60
CC1CCc2c(cc(F)c(-c3c(C(=O)O)sc4cc(Cl)ccc34)c2F)O1 (stereo not shown) [Example 80, 6-chloro-3-(5,7-difluoro-2-methyl-3,4-dihydro-2H-1-benzopyran-6-yl)-1-benzothiophene-2-carboxylic acid]	4
CC1COc2cc(-c3c(C(=O)O)sc4cc(F)ccc34)ccc2C1 (stereo not shown) [Example 40, 6-fluoro-3-(3-methyl-3,4-dihydro-2H-1-benzopyran-7-yl)-1-benzothiophene-2-carboxylic acid]	> 54
CC1CCc2cc(-c3c(C(=O)O)sc4cc(F)ccc34)c(F)cc2O1 (stereo not shown) [Example 67, 6-fluoro-3-(7-fluoro-2-methyl-3,4-dihydro-2H-1-benzopyran-6-yl)-1-benzothiophene-2-carboxylic acid]	5.1
O=C(O)c1sc2cc(F)ccc2c1-c1c(F)ccc(Cl)c1F [Example 97, 3-(3-chloro-2,6-difluorophenyl)-6-fluoro-1-benzothiophene-2-carboxylic acid]	0.54
O=C(O)c1sc2cc(F)ccc2c1-c1c(F)cc(Cl)cc1F [Example 59, 3-(4-chloro-2,6-difluorophenyl)-6-fluoro-1-benzothiophene-2-carboxylic acid]	> 60
O=C(O)c1sc2cc(F)ccc2c1-c1ccc2c(c1F)CCCO2 [Example 32, 6-fluoro-3-(5-fluoro-3,4-dihydro-2H-1-benzopyran-6-yl)-1-benzothiophene-2-carboxylic acid]	1.9
COc1c(F)c(F)cc(-c2c(C(=O)O)oc3cc(F)ccc23)c1F [Example 17, 6-Fluoro-3-(2,4,5-trifluoro-3-methoxyphenyl)-1-benzofuran-2-carboxylic acid]	0.88
COc1ccc(Cl)c(-c2c(C(=O)O)sc3cc(F)ccc23)c1F [Example 150, 3-(6-chloro-2-fluoro-3-methoxyphenyl)-6-fluoro-1-benzothiophene-2-carboxylic acid]	1.1
C[C@@H]1CCc2cc(-c3c(C(=O)O)sc4cc(F)ccc34)cc(F)c2O1 (single isomer, unassigned) [Example 72, 6-fluoro-3-(8-fluoro-2-methyl-3,4-dihydro-2H-1-benzopyran-6-yl)-1-benzothiophene-2-carboxylic acid, ENANT-1]	4.5
Cc1cc(-c2c(C(=O)O)sc3cc(Cl)ccc23)c(F)cc1F [Example 137, 6-chloro-3-(2,4-difluoro-5-methylphenyl)-1-benzothiophene-2-carboxylic acid]	0.54
COc1ncc(F)c(-c2c(C(=O)O)sc3cc(F)ccc23)c1F [Example 61, 3-(3,5-difluoro-2-methoxypyridin-4-yl)-6-fluoro-1-benzothiophene-2-carboxylic acid]	2.1
O=C(O)c1sc2cc(F)ccc2c1-c1ccc(Cl)cc1F [Example 64, 3-(4-chloro-2-fluorophenyl)-6-fluoro-1-benzothiophene-2-carboxylic acid]	11

Second part, the compound after the results:

IC50 [µM]	SMILES
0.071	COc1c(F)cc(F)c(-c2c(C(=O)O)sc3cc(Cl)ccc23)c1F [Example 63, 6-chloro-3-(2,4,6-trifluoro-3-methoxyphenyl)-1-benzothiophene-2-carboxylic acid]
4.2	COCc1c(F)c(F)cc(-c2c(C(=O)O)sc3cc(F)ccc23)c1F [Example 53, 6-fluoro-3-[2,4,5-trifluoro-3-(methoxymethyl)phenyl]-1-benzothiophene-2-carboxylic acid]
0.23	COc1c(Cl)ccc(-c2c(C(=O)O)sc3cc(F)ccc23)c1F [Example 79, 3-(4-chloro-2-fluoro-3-methoxyphenyl)-6-fluoro-1-benzothiophene-2-carboxylic acid]
3.8	O=C(O)c1sc2cc(F)ccc2c1-c1c(F)c(F)cc(F)c1F [Example 140, 6-fluoro-3-(2,3,5,6-tetrafluorophenyl)-1-benzothiophene-2-carboxylic acid]
> 60	O=C(O)c1sc2cc(F)ccc2c1-c1cc(F)cc(F)c1Cl [Example 111, ammonium 3-(2-chloro-3,5-difluorophenyl)-6-fluoro-1-benzothiophene-2-carboxylate]
2.6	COc1cccc(-c2c(C(=O)O)sc3cc(Cl)ccc23)c1F [Example 30, 6-chloro-3-(2-fluoro-3-methoxyphenyl)-1-benzothiophene-2-carboxylic acid]
25	O=C(O)c1sc2cc(F)ccc2c1-c1ccc2c(c1)CCCC2 [Example 37, 6-fluoro-3-(5,6,7,8-tetrahydronaphthalen-2-yl)-1-benzothiophene-2-carboxylic acid]
5.5	COc1cccc(-c2c(C(=O)O)sc3ccccc23)c1F [Example 26, 3-(2-fluoro-3-methoxyphenyl)-1-benzothiophene-2-carboxylic acid]
0.19	O=C(O)c1sc2cc(F)ccc2c1-c1ccc(F)c(C2CC2)c1F [Example 147, 3-(3-cyclopropyl-2,4-difluorophenyl)-6-fluoro-1-benzothiophene-2-carboxylic acid]
8.6	O=C(O)c1sc2cc(F)ccc2c1-c1c(F)cncc1F [Example 107, ammonium 3-(3,5-difluoropyridin-4-yl)-6-fluoro-1-benzothiophene-2-carboxylate]
12	O=C(O)c1sc2cc(F)ccc2c1-c1c(F)cccc1F [Example 48, 3-(2,6-difluorophenyl)-6-fluoro-1-benzothiophene-2-carboxylic acid]
3.8	O=C(O)c1sc2cc(F)ccc2c1-c1ccc2c(c1F)OCCC2 [Example 66, 6-fluoro-3-(8-fluoro-3,4-dihydro-2H-1-benzopyran-7-yl)-1-benzothiophene-2-carboxylic acid]
12	CCOc1c(Cl)ccc(-c2c(C(=O)O)sc3cc(F)ccc23)c1F [Example 51, 3-(4-chloro-3-ethoxy-2-fluorophenyl)-6-fluoro-1-benzothiophene-2-carboxylic acid]
0.2	CCc1c(F)ccc(-c2c(C(=O)O)sc3cc(Cl)ccc23)c1F [Example 143, 6-chloro-3-(3-ethyl-2,4-difluorophenyl)-1-benzothiophene-2-carboxylic acid]
0.55	CCc1ncc(F)c(-c2c(C(=O)O)sc3cc(F)ccc23)c1F [Example 110, 3-(2-ethyl-3,5-difluoropyridin-4-yl)-6-fluoro-1-benzothiophene-2-carboxylic acid]
4.9	O=C(O)c1sc2cc(F)ccc2c1-c1ccc2c(c1)CCCO2 [Example 28, 3-(3,4-dihydro-2H-1-benzopyran-6-yl)-6-fluoro-1-benzothiophene-2-carboxylic acid]
> 60	CCCOc1ccc(-c2c(C(=O)O)sc3cc(F)ccc23)c(F)c1F [Example 39, 3-(2,3-difluoro-4-propoxyphenyl)-6-fluoro-1-benzothiophene-2-carboxylic acid]
